Data: ChEMBL document CHEMBL1201862, “PubChem BioAssay data set” (2004)
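These data come from cells grown in 96-well plates and exposed to compound for 48 hours at five concentrations. The concentration for 50% growth inhibition is given as GI50.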 Active and inactive are the calls of the source. Rule as the data show it: active = GI50 up to about 1.1 µM and inactive = higher.

Columns and labels:
Assay in all cases: DTP human tumour cell line panel, 48 h
OVCAR-4 = system: OVCAR-4
SF-539 = system: SF-539
HCC 2998 = system: HCC 2998
OVCAR-3 = system: OVCAR-3
NCI-H522 = system: NCI-H522
OVCAR-5 = system: OVCAR-5
RXF 393 = system: RXF 393
SNB-75 = system: SNB-75
UACC-257 = system: UACC-257
CCRF-CEM = system: CCRF-CEM
SF-295 = system: SF-295
NCI/ADR-RES = system: NCI/ADR-RES
SK-OV-3 = system: SK-OV-3
NCI-H226 = system: NCI-H226
SN12C = system: SN12C
HCT-15 = system: HCT-15
HL-60 = system: HL-60
SK-MEL-5 = system: SK-MEL-5
MDA-MB-435 = system: MDA-MB-435
KM12 = system: KM12

Q: Cn1c(SCc2ccc(F)cc2)nnc1C12CC3CC(CC(C3)C1)C2 was tested. Which GI50 (OVCAR-4) did it give?
A: 35.2 µM (inactive)

Q: And the GI50 (SF-539)?
A: 24.5 µM (inactive)

Q: And the GI50 (HCC 2998)?
A: 39.2 µM (inactive)

Q: What about the GI50 (OVCAR-3) of the same molecule?
A: 29.4 µM (inactive)

Q: And the GI50 (NCI-H522)?
A: 36.9 µM (inactive)

Q: And the GI50 (OVCAR-5)?
A: 63.2 µM (inactive)

Q: And the GI50 (RXF 393)?
A: 27.8 µM (inactive)

Q: And the GI50 (SNB-75)?
A: 37.8 µM (inactive)

Q: What about the GI50 (UACC-257) of the same molecule?
A: 33.2 µM (inactive)

Q: What about the GI50 (CCRF-CEM) of the same molecule?
A: 17.1 µM (inactive)

Q: And the GI50 (SF-295)?
A: 50.8 µM (inactive)

Q: And the GI50 (NCI/ADR-RES)?
A: 28.9 µM (inactive)

Q: What about the GI50 (SK-OV-3) of the same molecule?
A: 52.1 µM (inactive)

Q: What about the GI50 (NCI-H226) of the same molecule?
A: 33.5 µM (inactive)

Q: And the GI50 (SN12C)?
A: 43.2 µM (inactive)

Q: And the GI50 (HCT-15)?
A: 26.4 µM

Q: What about the GI50 (HL-60) of the same molecule?
A: 11.1 µM (inactive)

Q: And the GI50 (SK-MEL-5)?
A: 11.9 µM (inactive)

Q: And the GI50 (MDA-MB-435)?
A: 22.5 µM (inactive)

Q: Which GI50 (OVCAR-4) does the source give for COC(=O)C1=C(C(=O)OC)C(OO)(c2ccccc2)OC1=O (centres undefined) here?
A: > 100 µM (inactive)

Q: And the GI50 (SF-539)?
A: 33.3 µM (inactive)

Q: And the GI50 (HCC 2998)?
A: > 100 µM (inactive)

Q: And the GI50 (OVCAR-3)?
A: > 100 µM (inactive)

Q: And the GI50 (NCI-H522)?
A: 60.7 µM (inactive)

Q: And the GI50 (OVCAR-5)?
A: 40.6 µM (inactive)

Q: What about the GI50 (RXF 393) of the same molecule?
A: > 100 µM (inactive)

Q: What about the GI50 (SNB-75) of the same molecule?
A: 50.7 µM (inactive)

Q: What about the GI50 (UACC-257) of the same molecule?
A: > 100 µM (inactive)

Q: What about the GI50 (CCRF-CEM) of the same molecule?
A: 55.6 µM (inactive)

Q: And the GI50 (SF-295)?
A: > 100 µM (inactive)

Q: What about the GI50 (NCI/ADR-RES) of the same molecule?
A: > 100 µM (inactive)

Q: And the GI50 (SK-OV-3)?
A: > 100 µM (inactive)

Q: And the GI50 (NCI-H226)?
A: > 100 µM (inactive)

Q: What about the GI50 (SN12C) of the same molecule?
A: 86.3 µM (inactive)

Q: And the GI50 (HCT-15)?
A: 40.6 µM

Q: What about the GI50 (HL-60) of the same molecule?
A: > 100 µM (inactive)

Q: What about the GI50 (SK-MEL-5) of the same molecule?
A: 50.2 µM (inactive)

Q: What about the GI50 (KM12) of the same molecule?
A: > 100 µM (inactive)

Q: And the GI50 (MDA-MB-435)?
A: > 100 µM (inactive)

Q: Which GI50 (OVCAR-4) does the source give for O=C1NC(N2CCCC(CO)C2)=N/C1=C\c1cccs1 (centres undefined) here?
A: > 100 µM (inactive)

Q: And the GI50 (SF-539)?
A: > 100 µM (inactive)

Q: And the GI50 (HCC 2998)?
A: > 100 µM (inactive)

Q: What about the GI50 (OVCAR-3) of the same molecule?
A: > 100 µM (inactive)

Q: And the GI50 (NCI-H522)?
A: > 100 µM (inactive)

Q: What about the GI50 (OVCAR-5) of the same molecule?
A: > 100 µM (inactive)

Q: And the GI50 (RXF 393)?
A: > 100 µM (inactive)

Q: And the GI50 (SNB-75)?
A: 98.2 µM (inactive)

Q: What about the GI50 (UACC-257) of the same molecule?
A: > 100 µM (inactive)

Q: What about the GI50 (CCRF-CEM) of the same molecule?
A: > 100 µM (inactive)

Q: And the GI50 (SF-295)?
A: > 100 µM (inactive)

Q: What about the GI50 (NCI/ADR-RES) of the same molecule?
A: > 100 µM (inactive)

Q: And the GI50 (SK-OV-3)?
A: > 100 µM (inactive)

Q: What about the GI50 (NCI-H226) of the same molecule?
A: > 100 µM (inactive)

Q: And the GI50 (SN12C)?
A: > 100 µM (inactive)

Q: What about the GI50 (HCT-15) of the same molecule?
A: > 100 µM

Q: What about the GI50 (HL-60) of the same molecule?
A: > 100 µM (inactive)

Q: And the GI50 (SK-MEL-5)?
A: > 100 µM (inactive)

Q: What about the GI50 (KM12) of the same molecule?
A: > 100 µM (inactive)

Q: And the GI50 (MDA-MB-435)?
A: > 100 µM (inactive)

Q: How did the GI50 (OVCAR-4) turn out when CC1OC(OC2C(O[C@H]3CC[C@@]4(C)[C@@H](CC[C@@H]5[C@@H]4CC[C@]4(C)[C@@H]6[C@H](C[C@@H]54)O[C@]4(CC[C@@H](C)CO4)[C@H]6C)C3)OC(CO)C(OC3OC(CO)C(O)C(OC4OCC(O)C(O)C4O)C3OC3OCC(O)C(O)C3O)C2O)C(O)C(O)C1O (some centres undefined) was run?
A: 1.47 µM (inactive)

Q: And the GI50 (SF-539)?
A: 0.303 µM (active)

Q: What about the GI50 (HCC 2998) of the same molecule?
A: 1.63 µM (inactive)

Q: And the GI50 (OVCAR-3)?
A: 1.74 µM (inactive)

Q: And the GI50 (NCI-H522)?
A: 0.676 µM (active)

Q: What about the GI50 (OVCAR-5) of the same molecule?
A: 1.16 µM (inactive)

Q: And the GI50 (RXF 393)?
A: 0.54 µM (active)

Q: What about the GI50 (SNB-75) of the same molecule?
A: 1.45 µM (inactive)

Q: What about the GI50 (UACC-257) of the same molecule?
A: 1.3 µM (inactive)

Q: And the GI50 (CCRF-CEM)?
A: 0.224 µM (active)

Q: And the GI50 (SF-295)?
A: 0.904 µM (active)

Q: What about the GI50 (NCI/ADR-RES) of the same molecule?
A: 1.58 µM (inactive)

Q: What about the GI50 (SK-OV-3) of the same molecule?
A: 1.9 µM (inactive)

Q: And the GI50 (NCI-H226)?
A: 1.87 µM (inactive)

Q: And the GI50 (HCT-15)?
A: 1.21 µM

Q: And the GI50 (HL-60)?
A: 0.282 µM (active)

Q: What about the GI50 (SK-MEL-5) of the same molecule?
A: 1.12 µM (inactive)

Q: What about the GI50 (KM12) of the same molecule?
A: 0.518 µM (active)

Q: What about the GI50 (MDA-MB-435) of the same molecule?
A: 1.42 µM (inactive)

Q: With NC(=O)C(=CNC(=S)Nc1cccc(C(F)(F)F)c1)C(N)=O as the molecule, how does the GI50 (OVCAR-4) read?
A: > 100 µM (inactive)

Q: And the GI50 (SF-539)?
A: > 100 µM (inactive)

Q: What about the GI50 (HCC 2998) of the same molecule?
A: > 100 µM (inactive)

Q: What about the GI50 (OVCAR-3) of the same molecule?
A: > 100 µM (inactive)

Q: What about the GI50 (OVCAR-5) of the same molecule?
A: > 100 µM (inactive)

Q: And the GI50 (RXF 393)?
A: > 100 µM (inactive)

Q: What about the GI50 (SNB-75) of the same molecule?
A: 51.9 µM (inactive)

Q: And the GI50 (UACC-257)?
A: > 100 µM (inactive)

Q: What about the GI50 (CCRF-CEM) of the same molecule?
A: > 100 µM (inactive)

Q: What about the GI50 (SF-295) of the same molecule?
A: > 100 µM (inactive)

Q: And the GI50 (NCI/ADR-RES)?
A: > 100 µM (inactive)

Q: And the GI50 (SK-OV-3)?
A: > 100 µM (inactive)

Q: What about the GI50 (NCI-H226) of the same molecule?
A: > 100 µM (inactive)

Q: What about the GI50 (SN12C) of the same molecule?
A: > 100 µM (inactive)

Q: And the GI50 (HL-60)?
A: > 100 µM (inactive)

Q: And the GI50 (SK-MEL-5)?
A: > 100 µM (inactive)

Q: What about the GI50 (KM12) of the same molecule?
A: > 100 µM (inactive)

Q: What about the GI50 (MDA-MB-435) of the same molecule?
A: > 100 µM (inactive)

Q: CC(C)(Cl)C(Br)CCC(C)(Cl)C(Br)CBr (centres undefined) was tested. Which GI50 (OVCAR-4) did it give?
A: 28.3 µM (inactive)

Q: And the GI50 (SF-539)?
A: 24.5 µM (inactive)

Q: And the GI50 (HCC 2998)?
A: 38.1 µM (inactive)

Q: What about the GI50 (OVCAR-3) of the same molecule?
A: 25.1 µM (inactive)

Q: What about the GI50 (NCI-H522) of the same molecule?
A: 16.3 µM (inactive)

Q: What about the GI50 (OVCAR-5) of the same molecule?
A: 18.7 µM (inactive)

Q: And the GI50 (RXF 393)?
A: 32.7 µM (inactive)

Q: And the GI50 (SNB-75)?
A: 25.1 µM (inactive)

Q: And the GI50 (UACC-257)?
A: 19.6 µM (inactive)

Q: What about the GI50 (CCRF-CEM) of the same molecule?
A: 18.8 µM (inactive)

Q: And the GI50 (SF-295)?
A: 20.2 µM (inactive)

Q: And the GI50 (NCI/ADR-RES)?
A: 31.7 µM (inactive)

Q: And the GI50 (SK-OV-3)?
A: 39.2 µM (inactive)

Q: And the GI50 (NCI-H226)?
A: 25.4 µM (inactive)

Q: What about the GI50 (SN12C) of the same molecule?
A: 22.1 µM (inactive)

Q: And the GI50 (HCT-15)?
A: 24.6 µM

Q: And the GI50 (HL-60)?
A: 19.4 µM (inactive)

Q: And the GI50 (SK-MEL-5)?
A: 18.2 µM (inactive)

Q: What about the GI50 (MDA-MB-435) of the same molecule?
A: 26.7 µM (inactive)

Q: Which GI50 (OVCAR-4) does the source give for CCOC(=O)CCCN here?
A: > 100 µM (inactive)

Q: And the GI50 (HCC 2998)?
A: > 100 µM (inactive)

Q: What about the GI50 (OVCAR-3) of the same molecule?
A: > 100 µM (inactive)

Q: And the GI50 (NCI-H522)?
A: > 100 µM (inactive)

Q: And the GI50 (OVCAR-5)?
A: > 100 µM (inactive)

Q: And the GI50 (RXF 393)?
A: > 100 µM (inactive)

Q: And the GI50 (SNB-75)?
A: > 100 µM (inactive)

Q: And the GI50 (UACC-257)?
A: > 100 µM (inactive)

Q: And the GI50 (CCRF-CEM)?
A: > 100 µM (inactive)

Q: What about the GI50 (SF-295) of the same molecule?
A: > 100 µM (inactive)

Q: What about the GI50 (NCI/ADR-RES) of the same molecule?
A: > 100 µM (inactive)

Q: What about the GI50 (SK-OV-3) of the same molecule?
A: > 100 µM (inactive)

Q: What about the GI50 (NCI-H226) of the same molecule?
A: > 100 µM (inactive)

Q: What about the GI50 (SN12C) of the same molecule?
A: > 100 µM (inactive)

Q: What about the GI50 (HCT-15) of the same molecule?
A: > 100 µM

Q: And the GI50 (HL-60)?
A: > 100 µM (inactive)

Q: What about the GI50 (SK-MEL-5) of the same molecule?
A: > 100 µM (inactive)

Q: What about the GI50 (KM12) of the same molecule?
A: > 100 µM (inactive)

Q: What about the GI50 (MDA-MB-435) of the same molecule?
A: > 100 µM (inactive)
